According to US20250345277A1, “Ionizable Liposome, Preparation Thereof, and Application Thereof in Gene Delivery” (MAXIRNA (ZHEJIANG) TECHNOLOGY CO. LTD., priority 2021, published 2025):

Tests used:
[1] = Size and polydispersity index PDI of lipid nanoparticles (Malvern Zetasizer Nano ZS); assay type: physicochemical; settings: LNP ionizable lipid/DOPE/cholesterol/DSPE-PEG2000 35/16/46.5/2.5 mol% encapsulating EGFP mRNA; for Particle Size: in nm (unit assumed)
Experimental: (§1) The ionizable lipid compound of Example 1 was dissolved in ethanol with DOPE, cholesterol and DSPE-PEG2000 (all purchased from AVT (Shanghai) Pharmaceutical Technology Co., Ltd.) at a molar ratio of 35:16:46.5:2.5 to prepare ethanol lipid solution, and enhanced green fluorescent protein (EGFP) mRNAs (Shanghai Maximna Pharmaceutical Engineering Co., Ltd., JN-4201) were diluted in 20 mM citrate buffer (pH=6.1) to obtain mRNA aqueous solution. Ethanol lipid solution and mRNA aqueous solution were mixed at a volume ratio of 1:3 by using a microfluidic device (Micro&Nano (Shanghai) Instrument Technology Co., Ltd., model: INano™ML), LNPs were prepared with a weight ratio of approximately 10:1 between total lipids and mRNAs. The medium was replaced by ultrafiltration, ethanol was removed and volumed with DPBS. Finally, the lipid nanoparticles were filtered through a 0.2 μm sterile filter to obtain a LNP formulation encapsulating eGFP mRNA using ionizable lipid/DOPE/cholesterol/DSPE-PEG2000 (35/16/46.5/2.5 mol %), the concentration of mRNAs being 0.002 mg/mL-0.5 mg/mL.
Using Malvern Zetasizer Nano ZS (Malvern UK), the size and polydispersity index PDI of lipid nanoparticles were measured at […].

[2] = Entrapment efficiency of LNP preparation encapsulating EGFP mRNA; assay type: physicochemical; settings: LNP ionizable lipid/DOPE/cholesterol/DSPE-PEG2000 35/16/46.5/2.5 mol% encapsulating EGFP mRNA
Experimental: as §1, with “mg/mL. […]” for “mg/mL.”

DC2.4 cells = assay: In vitro transfection of DC2.4 cells with EGFP mRNA LNP preparation (flow cytometry); assay type: cell-based, mouse; settings: DC2.4 cells; for Cell Viability / Positive Rate (EGFP): EGFP mRNA LNP, 200 ng mRNA per well, flow cytometry; for Fluorescence Intensity: EGFP mRNA expression level, normalized based on the sample with the highest fluorescence intensity
Description: The description is based on peripheral blood mononuclear cells PBMC (Shanghai Oribiotech Co., Ltd.), human peripheral blood leukemia T cell Jurkat (ATCC), tumor infiltrating lymphocyte TIL (isolated from resected tumor tissue of a liver cancer patient, the preparation method refers to CN114763530A), mouse bone marrow-derived dendritic cells DC2.4 (Cell Bank of the Chinese Academy of Sciences), and Chinese hamster ovary cells CHO (ATCC) were used as verified cell lines for liposome transfection. PBMC, Jurkat, and TIL cells grew in suspension, while DC2.4 and CHO cells grew by adherent culture. All the operation steps of cell culture must strictly abide by the prescribed procedures, and sterile reagents is used to perform aseptic operations under a sterile workbench. The main steps are as follows: • 1) Cell recovery: the preserved cell cryopreservation solution was taken out of the −80° C. refrigerator, and was immediately put in a 37° C. water bath for rapid and continuous shaking, and was completely melted within one minute. Fresh medium was added to the 15 mL centrifuge tube in advance, and the cell solution was added to the centrifuge tube in a biological safety cabinet. A centrifuge tube of the same quality was taken and placed symmetrically in a centrifuge, centrifuged at a low speed at 1200 rpm for 5 min. After centrifugation, the supernatant was removed, and an appropriate amount of medium was slowly added along the tube wall. After the cells were evenly dispersed by blowing gently, the cell suspension was pipette and added to the culture bottle prepared in advance. The state and distribution of the cells in the early stage of recovery were observed under a microscope. The culture bottle was placed in a 5% CO2 incubator and incubated at 37° C., and the recovery time was recorded. • 2) Cell subculture: Under the microscope, if the cell density in the field of view reaches 80%-90%, the cells can be subcultured. Adherent cells need to be digested with trypsin. In order to avoid the residual serum in the culture medium to reduce the activity of trypsin, DPBS solution was added to wash once after removing the original culture medium. After remove the DPBS solution, trypsin was added to degrade the protein at the junction between cells. This separates the cells for further culture. The cells were gently shaked evenly and put into the incubator for digestion for 2 min. Immediately after the digestion was completed, an appropriate amount of medium was added to the original petri dish to terminate the digestion. Finally, the cells were carefully blowed off using a pipette and blowed until they are evenly dispersed, and then inoculated and subcultured at a certain ratio according to the experimental requirements. […]
• 1) DC2.4 cells recovery: the frozen DC2.4 cells were taken out from the −80° C. refrigerator, put in a 37° C. water bath to quickly thaw the cells, added to the preheated medium after thawing, centrifuged at 1200 rpm for 5 min, the supernatant was discarded, and an appropriate amount of DMEM medium with 10% FBS was added to resuspend the recovered DC2.4, and placed in a 5% CO2 incubator at 37° C. for activation and culture. • 2) According to the experimental arrangement, DC2.4 cells were plated on a 24-well plate one day in advance for cell transfection. Through cell counting, the number of cells and cell viability were recorded, the cell suspension were taken at 2×10^5 cells per well, then a certain volume of DMEM medium containing 10% FBS was added and mixed evenly, 1 mL of mixture was added to each well for subsequent transfection experiment. • 3) After 24 hours, the medium was gently removed 30 minutes in advance by a pipette, 1 mL DPBS was added to each well for washing and then removed, then 300 μL serum-free Opti-MEM medium was added to each well for subsequent transfection experiments.
Subsequent steps are the same as the transfection protocol for PBMC cells. […]

CCCCCCCCCCCCCCC(O)CN(CCN(CCN1CCN(CCO)CC1)CCN(CC(O)CCCCCCCCCCCCCC)CC(O)CCCCCCCCCCCCCC)CC(O)CCCCCCCCCCCCCC (stereo not drawn) [I-C16]
PDI [1]: 0.147 | Particle Size [1]: 96.3 | Entrapment Efficiency [2]: 91.60% | Cell Viability (DC2.4 cells): 81.3% | Positive Rate (EGFP) (DC2.4 cells): 68.7% | Fluorescence Intensity (DC2.4 cells): 0.06

CCCCCCCCCCCCCCCCC(O)CN(CCN(CCN1CCN(CCO)CC1)CCN(CC(O)CCCCCCCCCCCCCCCC)CC(O)CCCCCCCCCCCCCCCC)CC(O)CCCCCCCCCCCCCCCC (stereo not drawn) [I-C18]
PDI [1]: 0.109 | Particle Size [1]: 72.3 | Entrapment Efficiency [2]: 83.06% | Cell Viability (DC2.4 cells): 86.0% | Positive Rate (EGFP) (DC2.4 cells): 66.4% | Fluorescence Intensity (DC2.4 cells): 0.04

CCCCCCCCCCC(O)CN(CCOCCN(CCOCCN(CC(O)CCCCCCCCCC)CC(O)CCCCCCCCCC)CCN1CCN(CCO)CC1)CC(O)CCCCCCCCCC (stereo not drawn) [J-C12]
PDI [1]: 0.105 | Particle Size [1]: 99.7 | Entrapment Efficiency [2]: 92.88% | Cell Viability (DC2.4 cells): 81.8% | Positive Rate (EGFP) (DC2.4 cells): 62.6% | Fluorescence Intensity (DC2.4 cells): 0.04

CCCCCCCCCCCCC(O)CN(CCOCCN(CCOCCN(CC(O)CCCCCCCCCCCC)CC(O)CCCCCCCCCCCC)CCN1CCN(CCO)CC1)CC(O)CCCCCCCCCCCC (stereo not drawn) [J-C14]
PDI [1]: 0.121 | Particle Size [1]: 126.1 | Entrapment Efficiency [2]: 83.58% | Cell Viability (DC2.4 cells): >99.0% | Positive Rate (EGFP) (DC2.4 cells): 59.1% | Fluorescence Intensity (DC2.4 cells): 0.06

CCCCCCCCCCCCCCC(O)CN(CCOCCN(CCOCCN(CC(O)CCCCCCCCCCCCCC)CC(O)CCCCCCCCCCCCCC)CCN1CCN(CCO)CC1)CC(O)CCCCCCCCCCCCCC (stereo not drawn) [J-C16]
PDI [1]: 0.077 | Particle Size [1]: 104.1 | Entrapment Efficiency [2]: 81.08% | Cell Viability (DC2.4 cells): 85.2% | Positive Rate (EGFP) (DC2.4 cells): 62.0% | Fluorescence Intensity (DC2.4 cells): 0.04

CCCCCCCCCCCCCCCCC(O)CN(CCOCCN(CCOCCN(CC(O)CCCCCCCCCCCCCCCC)CC(O)CCCCCCCCCCCCCCCC)CCN1CCN(CCO)CC1)CC(O)CCCCCCCCCCCCCCCC (stereo not drawn) [J-C18]
PDI [1]: 0.163 | Particle Size [1]: 93.7 | Entrapment Efficiency [2]: 88.56% | Cell Viability (DC2.4 cells): 83.6% | Positive Rate (EGFP) (DC2.4 cells): 60.9% | Fluorescence Intensity (DC2.4 cells): 0.04

CCCCCCCCCCC(O)CN(CCOCCOCCN(CCOCCOCCN(CC(O)CCCCCCCCCC)CC(O)CCCCCCCCCC)CCN1CCN(CCO)CC1)CC(O)CCCCCCCCCC (stereo not drawn) [K-C12]
PDI [1]: 0.075 | Particle Size [1]: 75.9 | Entrapment Efficiency [2]: 92.83% | Cell Viability (DC2.4 cells): >99.0% | Positive Rate (EGFP) (DC2.4 cells): 62.8% | Fluorescence Intensity (DC2.4 cells): 0.07

CCCCCCCCCCCCC(O)CN(CCOCCOCCN(CCOCCOCCN(CC(O)CCCCCCCCCCCC)CC(O)CCCCCCCCCCCC)CCN1CCN(CCO)CC1)CC(O)CCCCCCCCCCCC (stereo not drawn) [K-C14]
PDI [1]: 0.155 | Particle Size [1]: 122.7 | Entrapment Efficiency [2]: 87.00% | Cell Viability (DC2.4 cells): 82.3% | Positive Rate (EGFP) (DC2.4 cells): 59.8% | Fluorescence Intensity (DC2.4 cells): 0.03

CCCCCCCCCCCCCCC(O)CN(CCOCCOCCN(CCOCCOCCN(CC(O)CCCCCCCCCCCCCC)CC(O)CCCCCCCCCCCCCC)CCN1CCN(CCO)CC1)CC(O)CCCCCCCCCCCCCC (stereo not drawn) [K-C16]
PDI [1]: 0.185 | Particle Size [1]: 76.0 | Entrapment Efficiency [2]: 95.74% | Cell Viability (DC2.4 cells): 93.4% | Positive Rate (EGFP) (DC2.4 cells): 60.2% | Fluorescence Intensity (DC2.4 cells): 0.04

CCCCCCCCCCCCCCCCC(O)CN(CCOCCOCCN(CCOCCOCCN(CC(O)CCCCCCCCCCCCCCCC)CC(O)CCCCCCCCCCCCCCCC)CCN1CCN(CCO)CC1)CC(O)CCCCCCCCCCCCCCCC (stereo not drawn) [K-C18]
PDI [1]: 0.134 | Particle Size [1]: 124.2 | Entrapment Efficiency [2]: 92.77% | Cell Viability (DC2.4 cells): >99.0% | Positive Rate (EGFP) (DC2.4 cells): 74.7% | Fluorescence Intensity (DC2.4 cells): 0.05

CCCCCCCCCCC(O)CN(CCOCCOCCOCCN(CCOCCOCCOCCN(CC(O)CCCCCCCCCC)CC(O)CCCCCCCCCC)CCN1CCN(CCO)CC1)CC(O)CCCCCCCCCC [L-C12]
PDI [1]: 0.181 | Particle Size [1]: 88.4 | Entrapment Efficiency [2]: 93.38% | Cell Viability (DC2.4 cells): 84.9% | Positive Rate (EGFP) (DC2.4 cells): 58.1% | Fluorescence Intensity (DC2.4 cells): 0.07

CCCCCCCCCCCCC(O)CN(CCOCCOCCOCCN(CCOCCOCCOCCN(CC(O)CCCCCCCCCCCC)CC(O)CCCCCCCCCCCC)CCN1CCN(CCO)CC1)CC(O)CCCCCCCCCCCC [L-C14]
PDI [1]: 0.126 | Particle Size [1]: 101.5 | Entrapment Efficiency [2]: 91.54% | Cell Viability (DC2.4 cells): 99.0% | Positive Rate (EGFP) (DC2.4 cells): 60.0% | Fluorescence Intensity (DC2.4 cells): 0.04

CCCCCCCCCCCCCCC(O)CN(CCOCCOCCOCCN(CCOCCOCCOCCN(CC(O)CCCCCCCCCCCCCC)CC(O)CCCCCCCCCCCCCC)CCN1CCN(CCO)CC1)CC(O)CCCCCCCCCCCCCC [L-C16]
PDI [1]: 0.085 | Particle Size [1]: 111.5 | Entrapment Efficiency [2]: 92.34% | Cell Viability (DC2.4 cells): 97.2% | Positive Rate (EGFP) (DC2.4 cells): 64.8% | Fluorescence Intensity (DC2.4 cells): 0.06
